Consider one compound from patent publication US10533018B2, “Antimicrobial prochelators to target drug-resistant bacteria and methods of making and using the same” (Duke University, priority 2015, dated 2020).

Each structure is given as a SMILES string.

The experiment relates to E. coli. It counts as cell-based. The note with it: checkerboard, LB, OD600. The source says:
Further evidence for the influence of bioavailable copper on the IC50 of DB4-51 was obtained by using a checkerboard assay. […] Serial dilutions of DB4-51 in LB were arrayed against dilutions of chelator (BCS and EDTA). The antagonism exists between our prochelator, DB4-51, and the strong, extracellular chelators BCS and EDTA. […] However, at lower concentrations, EDTA works antagonistically with DB4-51 by restoring bacterial growth. This trend further underscores the influence that copper and potentially other metals have on the growth inhibitory activity of DB4-51.

Take `O=C(Cc1ccccc1)N[C@@H]1C(=O)N2C(C(=O)O)=C(CSc3cccc[n+]3[O-])CS[C@H]12` [DB4-51, 2-((((6R,7R)-2-carboxy-8-oxo-7-(2-phenylacetamido)-5-thia-1-azabicyclo[4.2.0]oct-2-en-3-yl)methyl)thio)pyridine 1-oxide]: the “interaction with extracellular chelators BCS and EDTA” value is given as “antagonism”.
